Test results taken from paper PMC8985489 (Alzheimer's & Dementia : Translational Research & Clinical …, 2022).

Key:
Human Recombinant IDO-1 = Human Recombinant IDO-1 (Homo sapiens, UniProt P14902); experiment: HR-IDO-1 enzymatic inhibition assay; type: biochemical
biotinylated Aβ1-42 = biotinylated Aβ1-42 (Homo sapiens, UniProt P05067); experiment: Aβ anti-oligomerization assay; type: biochemical
[1] = target: INF-γ-induced IDO-1 activity (Homo sapiens, UniProt P14902); experiment: INF-γ-induced IDO-1 activity; type: cell-based
Chain of INF-γ-induced IDO-1 activity (P14902 whole entry): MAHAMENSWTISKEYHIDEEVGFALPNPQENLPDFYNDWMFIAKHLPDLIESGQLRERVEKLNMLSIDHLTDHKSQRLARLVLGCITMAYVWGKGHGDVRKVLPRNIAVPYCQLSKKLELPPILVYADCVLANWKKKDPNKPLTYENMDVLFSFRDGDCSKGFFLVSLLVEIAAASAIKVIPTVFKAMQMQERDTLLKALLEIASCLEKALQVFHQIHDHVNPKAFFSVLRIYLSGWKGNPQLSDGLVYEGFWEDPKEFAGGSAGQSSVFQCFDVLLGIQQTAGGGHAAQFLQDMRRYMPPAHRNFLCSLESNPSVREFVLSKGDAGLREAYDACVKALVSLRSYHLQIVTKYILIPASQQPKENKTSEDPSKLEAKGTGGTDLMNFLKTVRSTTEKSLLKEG

Aβ1-40 [2] = target: T1, Aβ1-40 (Homo sapiens, UniProt P05067); experiment: Thioflavin T; type: biochemical
T1 sequence (P05067 672-711 limits assumed): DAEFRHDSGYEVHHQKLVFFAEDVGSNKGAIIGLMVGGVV

Aβ1-40 [3] = target: T1, Aβ1-40; experiment: Circular dichroism; type: biochemical
[4] = tested on: IL-1β production and release from microglia; experiment: IL-1β production and release from microglia; type: cell-based; settings: at 50 and 100 μM
IDO-1 = settings: cited from earlier work
[5] = tested on: SK-N-AS neuroblastoma cells; experiment: Aβ production in mammalian cells; type: cell-based, human; settings: SK-N-AS incubated with 1 μg/ml, within 3 h

Chain of biotinylated Aβ1-42 (P05067 672-713): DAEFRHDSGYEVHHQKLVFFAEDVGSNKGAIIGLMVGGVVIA
Chain of Human Recombinant IDO-1 (P14902 whole entry): as the sequence (P14902 whole entry) above

Compound	Aβ anti-aggregant activity in ThT assay (Aβ1-40 [2])	Aβ anti-aggregant activity in CD assay (Aβ1-40 [3])	other results
COc1ccc2[nH]cc(/C=C/c3ccc(O)cc3)c2c1 [4b, (E)‐4‐(2‐[5‐methoxy‐1H‐indol‐3‐yl]vinyl)phenol]	–	–	IC50 (Human Recombinant IDO-1): 2.8 µM; IC50 (biotinylated Aβ1-42): 6.5 µM; IC50 [1]: 10.8 µM
O=C(O)/C=C/c1ccc(O)cc1 [4‐coumarate]	exhibited Aβ anti‐aggregant activities	exhibited Aβ anti‐aggregant activities	–
NCCc1c[nH]c2ccc(O)cc12 [5‐hydroxytryptamine]	–	–	IL-1β production and release from microglia [4]: modulated
O=C(O)/C=C/c1ccc(O)c(O)c1 [caffeiate]	exhibited Aβ anti‐aggregant activities	exhibited Aβ anti‐aggregant activities	–
O=C(O)c1ccccc1O [salicylate]	exhibited Aβ anti‐aggregant activities	exhibited Aβ anti‐aggregant activities	–
COc1cc(/C=C/C(=O)O)cc(OC)c1O [sinapate]	exhibited Aβ anti‐aggregant activities	exhibited Aβ anti‐aggregant activities	–
N[C@@H](Cc1c[nH]c2ccccc12)C(=O)O [tryptophan]	–	–	activity in initial screen against Aβ aggregation (Aβ1-40 [2]; kinetic ThT Aβ1-40 anti-aggregation screen): inactive; activity in initial screen against Aβ aggregation (biotinylated Aβ1-42; biotinylated Aβ1-42 anti-oligomerization screen): inactive
lipopolysaccharide [LPS]	–	–	Aβ concentrations in the cell lysate [5]: 800 pg/mL
lipoteichoic acid [LTA]	–	–	Aβ concentrations in the cell lysate [5]: 800 pg/mL

The next lines start with results.

Aβ anti-aggregant activity in ThT assay (Aβ1-40 [2])	Aβ anti-aggregant activity in CD assay (Aβ1-40 [3])	Compound	other results
exhibited Aβ anti‐aggregant activities	exhibited Aβ anti‐aggregant activities	COc1cc(/C=C/C(=O)O)ccc1O [ferulate]	IDO-1 enzymatic activity (IDO-1): shown to inhibit IDO‐1 enzymatic activity
exhibited Aβ anti‐aggregant activities	exhibited Aβ anti‐aggregant activities	Oc1ccc(/C=C/c2cc(O)cc(O)c2)cc1 [resveratrol]	–
exhibited Aβ anti‐aggregant activities	exhibited Aβ anti‐aggregant activities	tannate	–
